Test results from US20240252677A1, “ONE-COMPONENT DELIVERY SYSTEM FOR NUCLEIC ACIDS” (The Trustees of the University of Pennsylvania, priority 2021, published 2024).

Columns and labels:
[1] = DLS size of dendrimersomes assembled from glycerol-JDs in water at different concentrations; format: physicochemical; conditions: for Dh (nm): size distribution by intensity
Experimental: Assembly of all eight glycerol-JDs was performed by injection of their ethanol solution (50 μL) into 1 mL of Milli-Q water. The size distribution and structure of resulting DSs were analyzed by DLS (FIG. 84) and cryo-TEM. […] In a certain concentration range the size of DSs increased with the concentration of JDs injected in water or buffer. […] The dimensions of the assemblies were identical when the concentrations of the JDs in water were identical. Sizes of assemblies from mixtures of 1R and 1S in different ratios (1:3, 1:1 and 3:1), were also identical (FIG. 84). […] With the exception of the rotation of polarized light, the physical properties of enantiomers and their racemic mixtures must be identical.
Dynamic light scattering (DLS). Hydrodynamic diameters (Dh) of the self-assemblies of dendrimer molecules and their size distributions were measured on a Malvern Instruments particle sizer (Zetasizer® Nano S, Malvern Instruments, UK) equipped with 4 mW He—Ne laser (633 nm) and avalanche photodiode positioned at […] to the beam and temperature controlled cuvette holder. Experiments were performed at 25° C. in triplicate. The distribution of radius was intensity.

[2] = Cryo-TEM of dendrimersomes from glycerol-JDs, number of vesicle layers; format: physicochemical
Description: The red numbers in FIG. 85 stand for the unilamellar while yellow numbers for multilamellar DSs. The calculated percentages of unilamellar DSs in the selected images for 2R, 2S and 2rac are 91%, 70% and 13%, respectively. Same trend was found for cryo-TEM of 1R, 1S and 1rac (FIG. 86 through FIG. 88). […] Achiral DSs are all unilamellar.
Cryogenic Transmission Electron Microscopy (Cryo-TEM). Morphologies of the Janus Dendrimer assemblies were characterized by cryo-TEM. Images were acquired on a Carl Zeiss Libra 120 microscope. Samples were prepared by plunge freezing of aqueous dispersion on plasma-treated lacey grids. The vitrified specimens were then transferred to a Gatan-910 cryoholder. The 5 images were recorded at −170° C. with an acceleration voltage of 120 kV. The concentration of JD in the aqueous solution of DSs was 1 mg mL-^1.

HEK293T cells = assay: In vitro Luc-mRNA transfection, luciferase luminescence expression in HEK293T cells; format: cell-based, human; design: unit not given here; conditions: CIAJD 4 mg/mL, HEK293T, 125 ng/well
Experimental: In Vitro Transfection Activity of DNPs in Human Embrionic Kidney (HEK) 293T Cells: HEK293T cells were seeded into 96-well plates (20,000 cells/well/200 μL) and cultured for 24 h at 37° C. in 5% CO2 complete cell culture media. Screening experiments were performed with nonoptimized DNPs containing naked nucleoside-modified mRNA (Karikó, et al., Immunity 2005, 23, 165-175; Pardi, et al., Methods Mol. Biol. 2013, 969, 29-42), of molar mass 664,341 encoding firefly luciferase (mRNA-Luc). A constant concentration of mRNA-Luc of 125 ng/well was used. The transIT (TransIT-mRNA transfection Kit from Mirus Bio) and MC3-based LNPs (MC3: DLin-MC3-DMA, which is the FDA approved LNP for mRNA delivery) were used as positive controls for cell transfection at a concentration of mRNA-Luc of 125 ng/well, identical to that of the tested DNPs. Subsequently cells were cultured for 24 h, the medium was aspirated under reduced pressure by a glass pipette and cells were lysed with 30 μL/well of cell culture lysis reagent (Promega). The luminescence intensity corresponding to the luciferase protein expressed was characterized and analyzed.
In vitro mRNA Delivery: Human embryonic kidney (HEK) 293T cells (American Type Culture Collection) were cultured in Dulbecco's modified Eagle's medium (DMEM) supplemented with 10% inactivated fetal bovine serum (FBS) (Gemini Bio-Products), 2 mM L-glutamine and 100 U/mL penicillin/streptomycin (Life Technologies) (complete medium). For in vitro screening experiments, HEK293T cells were seeded into 96-well plates (20,000 cells/well/200 μL) and cultured for 24 h in at 37° C. and 5% CO2 in complete media. Cell were transfected with IAJDs with encapsulated naked nucleoside-modified mRNA encoding firefly luciferase (mRNA-Luc) with fixed concentration of mRNA-Luc, 125 ng per well. The transIT (TransIT®-mRNA Transfection Kit, Mirus Bio) was used as a positive control for cell transfection, accordingly per manufacturer protocol and added to cells at the concentration of mRNA-Luc, 125 ng per well, the same as for tested particles. Cells were further cultured for 24 h, then medium was aspirated, and cells were lysed with 30 μL/well of cell culture lysis reagent (Promega). For the characterization of luminescence intensity, 2.5 μL of the lysed cells was mixed with 10 μL of luciferase assay substrate and luminescence was analyzed using a MiniLumat LB 9506 luminometer (Berthold/EG&G; Wallac).
Luminescence characterization for in vitro transfection experiments was performed by determining the luminescence intensity for in vitro Luc-mRNA transfection experiments using a MiniLumat LB 9506 luminometer (Berthold/EG&G; Wallac).
For in vitro Luc-mRNA transfection screening experiments, human embryonic kidney 293 cells (HEK 293) were seeded into 96-well plates (20,000 cells/well/200 μL) and cultured for 18-20 hours at 37° C., 5% CO2 in complete Dulbecco's modified Eagle's medium (DMEM) supplemented with 2 mM L-glutamine (Life Technologies), 100 U/mL penicillin/streptomycin (Invitrogen) and 10% fetal bovine serum (FBS, Gemini Bio-Products). Cells were transfected with DNPs with encapsulated naked nucleoside-modified mRNA encoding firefly luciferase (Luc-mRNA) at constant concentration of Luc-mRNA, 125 ng per well. Luc-mRNA complexed with TransIT (TransIT®-mRNA Transfection Kit, Mirus Bio) or encapsulated in FDA approved MC3-based LNPs were used as positive controls for cell transfection, at the concentration of Luc-mRNA of 125 ng per well, the same as for tested DNPs. After transfection cells were further cultured at 37° C., 5% CO2 for 18-20 hours, then medium was aspirated and cells were lysed with luciferase cell culture lysis reagent (30 μL/well) (Promega, Madison, WI). […]

[3] = Dimensions (size, PDI) of DNPs co-assembled from IAJDs and Luc-mRNA by DLS; format: physicochemical; conditions: CIAJD 4 mg/mL
Experimental: Dynamic Light Scattering (DLS) for the DNPs was performed in buffer with a Malvern Instruments particle sizer (Zetasizer Nano S, Malvern Instruments, UK) equipped with 4 mW He—Ne laser 633 nm and avalanche photodiode positioned at […] to the beam and temperature-controlled cuvette holder. Instrument parameters were determined automatically along with measurement times.
Formulation of DNPs Containing mRNA-Luc: IAJDs were dissolved in ethanol with various initial concentrations (5-160 mg/mL). Nucleoside-modified mRNA encoding firefly luciferase (mRNA-Luc) was dissolved in water with various initial concentrations (1-4 mg/mL). 12.5 μL of mRNA solution was placed into a clean RNAs free eppendorf (1.5 mL) and mixed with 463 μL of citrate buffer (10 mM, pH 3.0)/acetate buffer (10 mM). For encapsulation of mRNA into IAJDs, 25 μL of IAJDs of the ethanol stock solution was rapidly injected into mRNA solution in citrate or acetate buffer followed by vortex for 5 seconds.
(§1) Dynamic Light Scattering (DLS) for the sizes and polydispersities of DNPs was performed on a Malvern Instruments particle sizer (Zetasizer Nano S, Malvern Instruments, UK) equipped with 4 mW He—Ne laser 633 nm and avalanche photodiode positioned at 1750 to the beam and temperature-controlled cuvette holder. Instrument parameters were determined automatically along with measurement times. Sample solution (0.4 mL) was placed in a semi-micro cuvette (1.6 mL, polystyrene, 10×10×45 mm, manufactured by Greiner Bio-One) and the measurements were performed at 23° C.
Formulation of DNPs obtained by co-assembly of IAJDs and Luc-mRNA was performed as follows. IAJDs were dissolved in ethanol with an initial concentration of 80 mg/mL. Nucleoside-modified mRNA encoding firefly luciferase (Luc-mRNA) was dissolved in UltraPure DNase/RNase-free distilled water with an initial concentration of 4.0 mg/mL. 12.5 μL of Luc-mRNA solution was placed into a clean RNAs free eppendorf (1.5 mL) and 463 μL acetate buffer (10 mM, pH 4.0) was added. Then, 25 μL of IAJD in the ethanol stock solution was rapidly injected into the Luc-mRNA solution in acetate buffer followed by vortex for 5 seconds.
as §1, with “dimensions (sizes” for “sizes”, “polydispersities)” for “polydispersities”, “175°” for “1750”, “set up” for “determined”, “(c.a. 0.4” for “(0.4”, “mm,” for “mm, manufactured by”
Formulation of DNPs Co-assembled from IAJDs and Luc-mRNA: nucleoside-modified mRNA encoding firefly luciferase (Luc-mRNA) was dissolved in UltraPure DNase/RNase-free distilled water with an initial concentration of 4.0 mg/mL. IAJD molecules were dissolved in ethanol with an initial concentration of 80 mg/mL. 12.5 μL of Luc-mRNA solution was taken and placed into a clean RNAs free eppendorf (1.5 mL). Then 463 μL of acetate buffer (10 mM, pH 4.0) was added. Afterwards, 25 μL of IAJD in the ethanol stock solution was taken and rapidly injected into the above Luc-mRNA solution in acetate buffer followed by vortex for 5 seconds.

[4] = Acetate buffer 10 mM pH 4.0, CLuc-mRNA 0.05 mg/mL
[5] = Acetate buffer 10 mM pH 5.2, CLuc-mRNA 0.10 mg/mL
[6] = Citrate buffer 10 mM pH 3.0, CLuc-mRNA 0.05 mg/mL

## CCCCCCCCCCCCOc1cc(OCCCCCCCCCCCC)cc(C(=O)OC[C@@H](COC(=O)C(C)(COC(=O)c2cc(OCCOCCOCCOC)c(OCCOCCOCCOC)c(OCCOCCOCCOC)c2)COC(=O)c2cc(OCCOCCOCCOC)c(OCCOCCOCCOC)c(OCCOCCOCCOC)c2)OC(=O)c2cc(OCCCCCCCCCCCC)cc(OCCCCCCCCCCCC)c2)c1 [Compound 1S, (3,5)-12G1-GC-(S)-BMPA-(3,4,5)-3EO-G1]
[1]; JD 0.025 mg·mL−1 in water
  PDI: 0.446
  Dh (nm): 80 nm
[1]; JD 0.05 mg·mL−1 in water
  PDI: 0.359
  Dh (nm): 86 nm
[1]; JD 0.1 mg·mL−1 in water
  PDI: 0.223
  Dh (nm): 100 nm
[1]; JD 0.15 mg·mL−1 in water
  PDI: 0.190
  Dh (nm): 124 nm
[1]; JD 0.2 mg·mL−1 in water
  PDI: 0.195
  Dh (nm): 135 nm
[1]; JD 0.25 mg·mL−1 in water
  PDI: 0.203
  Dh (nm): 142 nm
[1]; JD 0.3 mg·mL−1 in water
  PDI: 0.186
  Dh (nm): 147 nm
[1]; JD 0.4 mg·mL−1 in water
  PDI: 0.258
  Dh (nm): 184 nm
[1]; JD 0.5 mg·mL−1 in water
  PDI: 0.438
  Dh (nm): 229 nm
[2]; vesicles with 1 layer
  Number of vesicle layers: 1 (count of vesicles): 23
[2]; vesicles with 2 layers
  Number of vesicle layers: 2 (count of vesicles): 9
[2]; vesicles with 3 layers
  Number of vesicle layers: 3 (count of vesicles): 3
[2]; vesicles with 4 layers
  Number of vesicle layers: 4 (count of vesicles): 4
[2]; vesicles with 5 layers
  Number of vesicle layers: 5 (count of vesicles): 1
[2]; vesicles with 6 layers
  Number of vesicle layers: 6 (count of vesicles): 0

## (3,5)-12G2-BMPA-GC-(achiral)-(3,4,5)-3EO-G1 [Compound 4]
HEK293T cells; [4]
  Luminescence: 3,283
HEK293T cells; [5]
  Luminescence: 1,613
HEK293T cells; [6]
  Luminescence: 2,063
[3]; [4]
  PDI: 0.330
  Size (d, nm): 58 nm
[3]; [5]
  PDI: 0.284
  Size (d, nm): 178 nm
[3]; [6]
  PDI: 0.460
  Size (d, nm): 61 nm
